# Reference: patent US9695154B2, “Heteroaryl inhibitors of sumo activating enzyme” (MILLENNIUM PHARMACEUTICALS, INC., priority 2013, dated 2017)
# Target: T1, recombinant human SAE enzyme (Homo sapiens, UniProt Q9UBT2)
# T1 sequence (Q9UBT2 1-640): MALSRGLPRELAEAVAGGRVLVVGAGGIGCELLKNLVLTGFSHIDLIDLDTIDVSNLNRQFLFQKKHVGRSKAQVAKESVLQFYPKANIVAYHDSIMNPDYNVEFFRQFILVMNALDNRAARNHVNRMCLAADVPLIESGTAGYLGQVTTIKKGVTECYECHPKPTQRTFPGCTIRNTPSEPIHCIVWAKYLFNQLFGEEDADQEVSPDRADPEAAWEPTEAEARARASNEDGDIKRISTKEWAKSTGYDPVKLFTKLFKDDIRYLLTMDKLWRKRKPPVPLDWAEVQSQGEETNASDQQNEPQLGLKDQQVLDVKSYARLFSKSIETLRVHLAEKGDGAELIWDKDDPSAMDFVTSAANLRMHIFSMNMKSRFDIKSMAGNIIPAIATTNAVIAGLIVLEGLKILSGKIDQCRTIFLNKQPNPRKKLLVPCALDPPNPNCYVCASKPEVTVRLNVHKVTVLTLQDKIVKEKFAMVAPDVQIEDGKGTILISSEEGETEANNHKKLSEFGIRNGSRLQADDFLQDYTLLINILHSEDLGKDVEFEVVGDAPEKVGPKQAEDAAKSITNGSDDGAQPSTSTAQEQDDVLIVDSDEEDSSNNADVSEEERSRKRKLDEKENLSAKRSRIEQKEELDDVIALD
# T1 sequence (Q9UBE0 1-346 partner): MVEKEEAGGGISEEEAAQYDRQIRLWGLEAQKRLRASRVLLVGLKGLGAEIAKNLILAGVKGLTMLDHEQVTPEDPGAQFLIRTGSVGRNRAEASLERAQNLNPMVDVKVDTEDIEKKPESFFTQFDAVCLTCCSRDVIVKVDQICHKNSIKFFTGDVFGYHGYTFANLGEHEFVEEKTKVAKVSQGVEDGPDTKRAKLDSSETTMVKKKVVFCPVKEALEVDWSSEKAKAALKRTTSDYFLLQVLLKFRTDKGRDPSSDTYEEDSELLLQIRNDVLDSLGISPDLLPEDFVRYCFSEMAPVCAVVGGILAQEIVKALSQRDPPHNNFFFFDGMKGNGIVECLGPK
# Test: SAE HTRF Enzyme Assay
# Assay type: biochemical
# Conditions: for IC50: class symbols A-C; for Percent Inhibition / inhibition at 0.111 µM: compound concentration 0.111 μM; for Percent Inhibition: 0.111 µM; for inhibition at 0.111 µM: read-out: Percent Inhibition
# Description: The SAE enzymatic reaction totals 50 μl and contains 50 mM HEPES Hemisodium (pH 7.5), 0.05% BSA, 5 mM MgCl2, 0.5 μM ATP, 250 μM GSH, 0.01 μM Ubc9-GST, 0.125 μM Sumo-Flag and 0.11 nM recombinant human SAE enzyme. The enzymatic reaction mixture with and without inhibitor, Is incubated at 24° C. for 105 min in a 384-well plate before termination with […] of Stop/Detection buffer (0.1M HEPES Hemisodium pH 7.5, 0.05% Tween20, 20 mM EDTA, 410 mM KF, 0.53 nM Europium-Cryptate labeled monoclonal anti-Flag M2 Antibody (CisBio International) and 8.125 μg/ml PHYCOLINK goat anti-GST allophycocyanin (XL-APC) antibody (Prozyme)). After incubation for 2 hours at 24° C., quantification of FRET is performed on the Pherostar™ (BMG Labtech). Percentage inhibition values at a single concentration or enzyme inhibition (IC50) values are determined from those curves. One skilled in the art will appreciate that the values generated either as percentage inhibition at a single concentration or IC50 values are subject to experimental variation.
SMILES,IC50 [nM],Percent Inhibition [%],inhibition at 0.111 µM [%]
"CC(c1ccc(Cl)o1)n1ccc(C(=O)c2cncnc2N[C@@H]2C[C@H](COS(N)(=O)=O)[C@@H](O)C2)n1 (single isomer, unassigned) [Compound I-79, [(1R,2S,4R)-4-{[5-({1-[(1S)-1-(5-chloro-2-furyl)ethyl]-1H-pyrazol-3-yl}carbonyl)pyrimidin-4-yl]amino}-2-hydroxycyclopentyl]methyl sulfamate or [(1R,2S,4R)-4-{[5-({1-[(1R)-1-(5-chloro-2-furyl)ethyl]-1H-pyrazol-3-yl}carbonyl)pyrimidin-4-yl]amino}-2-hydroxycyclopentyl]methyl sulfamate]",< 10,98,
"CC#CC(C)n1ccc(C(=O)c2cncnc2N[C@@H]2C[C@H](COS(N)(=O)=O)[C@@H](O)C2)n1 (single isomer, unassigned) [Compound I-86, {(1R,2S,4R)-2-hydroxy-4-[(5-{[1-(2S)-(pent-3-yn-2-yl)-1H-pyrazol-3-yl]carbonyl}pyrimidin-4-yl)amino]cyclopentyl}methyl sulfamate or {(1R,2S,4R)-2-hydroxy-4-[(5-{[1-(2R)-(pent-3-yn-2-yl)-1H-pyrazol-3-yl]carbonyl}pyrimidin-4-yl)amino]cyclopentyl}methyl sulfamate]",100 to 1000,35,
"CC(c1cccc(Cl)c1)n1ccc(C(=O)c2cncnc2N[C@@H]2C[C@H](COS(N)(=O)=O)[C@@H](O)C2)n1 (single isomer, unassigned) [Compound I-133, [(1R,2S,4R)-4-{[5-({1-[(1S)-1-(3-chlorophenyl)ethyl]-1H-pyrazol-3-yl}carbonyl)pyrimidin-4-yl]amino}-2-hydroxycyclopentyl]methyl sulfamate or [(1R,2S,4R)-4-{[5-({1-[(1R)-1-(3-chlorophenyl)ethyl]-1H-pyrazol-3-yl}carbonyl)pyrimidin-4-yl]amino}-2-hydroxycyclopentyl]methyl sulfamate]",10 to 100,61,
"Cc1cc(C(=O)c2cncnc2N[C@@H]2C[C@H](COS(N)(=O)=O)[C@@H](O)C2)nn1C(C)c1cccc(Cl)c1 (single isomer, unassigned) [Compound I-172, [(1R,2S,4R)-4-{[5-({1-[(1R)-1-(3-chlorophenyl)ethyl]-5-methyl-1H-pyrazol-3-yl}carbonyl)pyrimidin-4-yl]amino}-2-hydroxycyclopentyl]methyl sulfamate or [(1R,2S,4R)-4-{[5-({1-[(1S)-1-(3-chlorophenyl)ethyl]-5-methyl-1H-pyrazol-3-yl}carbonyl)pyrimidin-4-yl]amino}-2-hydroxycyclopentyl]methyl sulfamate]",10 to 100,,83
"CCC(c1cccc(Br)c1)n1ccc(C(=O)c2cncnc2N[C@@H]2C[C@H](COS(N)(=O)=O)[C@@H](O)[C@@H]2F)c1 (single isomer, unassigned) [Compound I-175, [(1R,2R,3R,4R)-4-{[5-({1-[(1S)-1-(3-bromophenyl)propyl]-1H-pyrrol-3-yl}carbonyl)pyrimidin-4-yl]amino}-3-fluoro-2-hydroxycyclopentyl]methyl sulfamate or [(1R,2R,3R,4R)-4-{[5-({1-[(1R)-1-(3-bromophenyl)propyl]-1H-pyrrol-3-yl}carbonyl)pyrimidin-4-yl]amino}-3-fluoro-2-hydroxycyclopentyl]methyl sulfamate]",< 10,,99
"CC(c1cccc(Br)c1)n1ccc(C(=O)c2cncnc2N[C@@H]2C[C@H](COS(N)(=O)=O)[C@@H](O)[C@@H]2F)c1 (single isomer, unassigned) [Compound I-192, [(1R,2R,3R,4R)-4-{[5-({1-[(1S)-1-(3-bromophenyl)ethyl]-1H-pyrrol-3-yl}carbonyl)pyrimidin-4-yl]amino}-3-fluoro-2-hydroxycyclopentyl]methyl sulfamate or [(1R,2R,3R,4R)-4-{[5-({1-[(1R)-1-(3-bromophenyl)ethyl]-1H-pyrrol-3-yl}carbonyl)pyrimidin-4-yl]amino}-3-fluoro-2-hydroxycyclopentyl]methyl sulfamate]",< 10,,98
